Results on 16 molecules are retold here after US20230391778A1, “INDOLIN-2-ONE OR PYRROLO -PYRIDIN -2 -ONE DERIVATIVES” (Hoffmann-La Roche Inc., priority 2014, published 2023).

For the assay, the target named is T1, mouse ENT-1 transporter (Mus musculus, UniProt Q9JIM1).
T1 construct: expressed in transfected cells
T1 sequence (Q9JIM1 1-460): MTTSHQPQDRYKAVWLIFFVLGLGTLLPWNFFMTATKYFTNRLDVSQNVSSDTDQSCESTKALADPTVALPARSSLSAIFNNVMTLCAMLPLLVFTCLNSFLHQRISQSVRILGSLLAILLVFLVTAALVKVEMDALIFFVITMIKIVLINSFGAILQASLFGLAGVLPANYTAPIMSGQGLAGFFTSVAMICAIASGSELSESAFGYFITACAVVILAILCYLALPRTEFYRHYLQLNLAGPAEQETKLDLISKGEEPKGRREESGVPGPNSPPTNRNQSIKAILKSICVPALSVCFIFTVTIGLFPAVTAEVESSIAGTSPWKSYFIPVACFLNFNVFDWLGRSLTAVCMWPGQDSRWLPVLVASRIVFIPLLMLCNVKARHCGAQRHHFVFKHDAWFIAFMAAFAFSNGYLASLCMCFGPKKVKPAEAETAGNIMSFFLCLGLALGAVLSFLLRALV
In words: Measure of adenosine transport activity (ENT1 adenosine uptake inhibition). In kind it is cell-based. As to conditions: stable cells expressing mouse ENT-1, [2,8-3H]-adenosine 6 nM, 20 min. The method, then:
To measure adenosine transport activity of ENT-1 mammalian cells, stable cells expressing the mouse ENT-1 transporter were plated on day 1 in 96-well culture plates at the density of 60,000 cells/well, in complete DMEM/F12 medium supplemented with glutamax, 10% FBS and 10 μg/ml puromycin. On day 2, the medium was aspirated and the cells were washed twice with uptake buffer (10 mM Hepes-Tris, pH 7.4 containing 150 mM NaCl, 1 mM CaCl2), 2.5 mM KCl, 2.5 mM MgSO4, 10 mM D-glucose) (UB). For inhibition experiments, cells were then incubated at RT with various concentrations of compounds with 1% DMSO final. Non-specific uptake was defined in the presence of 10 μM S-(4-Nitrobenzyl)-6-thioinosine (NBTI, Sigma Cat #N2255).
The plates were then incubated for 20 min with gentle shaking and the reaction was stopped by aspiration of the mixture and washing (three times) with ice-cold UB. The cells were lysed by the addition of scintillation liquid, shaken 3 hours and the radioactivity in the cells was estimated using a microplates scintillation counter (TopCount NXT, Packard).

As for `Cc1ncc(-c2ccc3c(c2)N(c2ccc(C4CC4)nc2)C(=O)C3(C)C)cn1` [Example 32, 1-(6-Cyclopropylpyridin-3-yl)-3,3-dimethyl-6-(2-methylpyrimidin-5-yl)indolin-2-one], it took 59 nM to reach half-maximal inhibition (IC50). With `Cc1cncc(N2C(=O)C(C)(C)c3ccc(-c4cnc(C)nc4)cc32)n1` [Example 63, 3,3-Dimethyl-1-(6-methylpyrazin-2-yl)-6-(2-methylpyrimidin-5-yl)indolin-2-one], it took 670 nM to reach half-maximal inhibition (IC50). This IC50 is about 11-fold higher than that of the molecule before. Molecule `Cc1cc(N2C(=O)C(C)(C)c3ccc(-c4cnc(C)nc4)cc32)ncn1` [Example 7, 3,3-Dimethyl-1-(6-methylpyrimidin-4-yl)-6-(2-methylpyrimidin-5-yl)indolin-2-one] showed an IC50 of 1540 nM. Turning to `Cc1cnnc(N2C(=O)C(C)(C)c3ccc(-c4cnc(C)nc4)cc32)c1` [Example 122, 3,3-dimethyl-1-(5-methylpyridazin-3-yl)-6-(2-methylpyrimidin-5-yl)indolin-2-one], half-maximal inhibition (IC50) was put at 626 nM. Take “5-(3,3-dimethyl-1-(5-methylpyrimidin-2-yl)-2-oxoindolin-6-yl)-2-methylpyrimidine 1-oxide [Example 101]”: inhibition was half-maximal at 2400 nM (IC50).

In turn, `Cc1cnc(-c2ccc3c(c2)N(c2cncc(C)n2)C(=O)C3(C)C)cn1` [Example 132, 3,3-dimethyl-6-(5-methylpyrazin-2-yl)-1-(6-methylpyrazin-2-yl)indolin-2-one] gave an IC50 of 2450 nM. As to `Cc1cc(-c2ccc3c(c2)N(c2cn(C)cn2)C(=O)C3(C)C)ccn1` [Example 11, 3,3-Dimethyl-1-(1-methyl-1H-imidazol-4-yl)-6-(2-methylpyridin-4-yl)indolin-2-one], half-maximal inhibition (IC50) was put at 7030 nM.

Regarding `Cc1ncc(-c2ccc3c(c2)N(c2cc[nH]n2)C(=O)C3(C)C)cn1` [Example 55, 3,3-Dimethyl-6-(2-methylpyrimidin-5-yl)-1-(1H-pyrazol-3-yl)indolin-2-one], half-maximal inhibition (IC50) was put at 2410 nM. With `Cc1ncc(-c2ccc3c(c2)N(c2cc(F)ncc2C)C(=O)C3(C)C)cn1` [Example 47, 1-(2-Fluoro-5-methylpyridin-4-yl)-3,3-dimethyl-6-(2-methylpyrimidin-5-yl)indolin-2-one], the IC50 is 7190 nM.

Take `Cc1cc(C)nc(N2C(=O)C(C)(C)c3ccc(-c4cnc(C)nc4)cc32)n1` [Example 67, 1-(4,6-Dimethylpyrimidin-2-yl)-3,3-dimethyl-6-(2-methylpyrimidin-5-yl)indolin-2-one]: the 50% inhibitory concentration (IC50) is 5630 nM. For `Cc1ncc(-c2ccc3c(c2)N(c2nccc(Cl)n2)C(=O)C3(C)C)cn1` [Example 128, 1-(4-chloropyrimidin-2-yl)-3,3-dimethyl-6-(2-methylpyrimidin-5-yl)indolin-2-one], the concentration for half-maximal inhibition (IC50) turned out to be 851 nM. In the case of `Cc1ncc(-c2ccc3c(c2)N(c2cnc(CN)nc2)C(=O)C3(C)C)cn1` [Example 103, 1-[2-(aminomethyl)pyrimidin-5-yl]-3,3-dimethyl-6-(2-methylpyrimidin-5-yl)indol-2-one], it took 18400 nM to reach half-maximal inhibition (IC50). As to `Cc1ncc(-c2ccc3c(c2)N(c2ccc(C#N)nc2)C(=O)C3(C)C)cn1` [Example 30, 5-(3,3-Dimethyl-6-(2-methylpyrimidin-5-yl)-2-oxoindolin-1-yl)picolinonitrile], the concentration for half-maximal inhibition (IC50) was found to be 2140 nM. `Cc1cncc(N2C(=O)C(C)(C)c3ccc(-c4cncc(F)c4)cc32)n1` [Example 146, 6-(5-fluoro-3-pyridyl)-3,3-dimethyl-1-(6-methylpyrazin-2-yl)indolin-2-one] displayed an IC50 of 2130 nM.

The molecule `Cc1ncc(-c2ccc3c(c2)N(c2cncc(C(F)(F)F)c2)C(=O)C3(C)C)cn1` [Example 152, 3,3-dimethyl-6-(2-methylpyrimidin-5-yl)-1-(5-(trifluoromethyl)pyridin-3-yl)indolin-2-one] showed an IC50 of 317 nM. For `Cc1cnc(N2C(=O)C(C)(C)c3ccc(-c4ccnc(C)c4)cc32)cn1` [Example 147, 3,3-dimethyl-1-(5-methylpyrazin-2-yl)-6-(2-methyl-4-pyridyl)indolin-2-one] the value was 9000 nM.

One may read the IC50 as the concentration at which inhibition is half-maximal.
